Patent US20110230553A1, “CRYSTALLIZED FORM OF DRONEDARONE BASE” (SANOFI-AVENTIS, priority 2010, published 2011)
“Also recorded” adds a separate entry of the source.

Columns and labels:
Type in all cases: physicochemical
[1] = Stability study in climatic chamber: appearance; settings: after 15 and 30 days at 50° C./80% RH
Experimental: (§1) The stabilities of two crystalline forms of dronedarone base, namely form B according to the instant invention and form A described above, are studied in a climatic chamber (reference : Firlabo SP_BVEHF) at 50° C., with or without 80% relative humidity (RH). The duration time of the stability study is set up at 1 month. Samples are monitored in terms of appearance by microscope observation, chemical degradation by HPLC, crystalline form and phase change by XRPD (X-Ray Powder Diffraction, reference : Bruker D5000) and thermal behavior by DSC and TGA (references : TA Instrument Q100/Q1000 for DSC analyses and 050/Q500 for TGA analyses). HPLC is performed with a Waters 2487 apparatus, using as mobile phase a gradient of acetonitrile and pH 4.0 phosphate buffer (30/70 to 70/30, V/V, gradient).

[2] = Dynamic Vapor Sorption (DVS) moisture sorption/desorption isotherms; settings: 25° C., relative humidity 0 to 95% and back, two cycles
Experimental: Moisture sorption/desorption isotherms are recorded on a DVS-1 from Surface Measurement Systems. Two cycles are run at 25° C., in which the relative humidity is stepped from 0 to 95% and back to 0%. The complete measurement time for both cycles is about 35 h. The data is evaluated using the software DVSWin V. 2.15.
The DVS isotherms of the crystallized form B of dronedarone base are represented on FIG. 5, wherein the change in dry mass (expressed in percentages) is plotted against the target relative humidity (RH, expressed in percentages). On FIG. 5, <<Sorp>> and <<Desorp>> respectively designate the humidity sorption and desorption of each cycle.

[3] = Thermodynamic stability of the crystalline phases (DSC, X-ray at various temperatures); settings: at and around room temperature / upon heating
Experimental: X-ray diffractograms registered at various temperatures from room temperature to 100° C., at intervals of 10° C., have confirmed the solid-solid transition from form A to form C. A first crystalline solid phase, designated as form A, exists from room temperature to […] Two crystalline forms are thus observed : form A from room temperature to about 50° C., and form C appearing above 50° C. and melting between 60 and 70° C.
All DSC measurements are performed with a Mettler DSC822e (module DSC822e/700/109/414935/0025). If not indicated differently, 40 μL Al-crucibles with sealed lid and hole are used. All measurements are carried out in a nitrogen gas flow of 50 mL/min and chosen heating rate was 10° C./min., with a heating from 25° C. to at least 150° C.
In comparison, the crystallized form C of dronedarone base presents a melting point at about 69° C. On heating with a rate of 10° C./min, form A transforms to form C at about 54° C.; on further heating, form C melts at about 65° C. (onset temperature of the second endothermic event). After formation of form C, if the heating is stopped below form C melting point and the medium is then cooled back to room temperature, form C typically transforms back to form A between 50 and 45° C.

[4] = Stability study in climatic chamber: thermal behavior by DSC and TGA
Experimental: as §1

[5] = Stability study in climatic chamber: crystalline form and phase change by XRPD
Experimental: as §1

[6] = Stability study in climatic chamber: chemical degradation by HPLC; settings: 50° C. with or without 80% RH, up to 30 days
Experimental: as §1
The results in terms of chemical degradation are presented in table 8, which summarizes the content in degradation product measured in the samples. The results in table 8 represent percentages in impurities (impurities appearing after the storage for 15 to 30 days, i.e. total impurities after storage minus impurities already present at t=0).
The percentages correspond to the area under the peaks detected in chromatography.

hygroscopicity [2] | thermodynamic stability of the solid form [3] | change in the DSC spectrum after storage ([4]; whatever the storage conditions) | crystalline form change by XRPD ([5]; all tested conditions, up to 30 days) | stability in terms of crystalline phase ([5]; storage at 50° C. with or without 80% RH) | chemical stability compared under the same storage conditions [6] | change in the DSC spectrum after storage ([4]; stored at 50° C./80% RH) | crystalline form change by XRPD ([5]; after 15 days at 50° C./80% RH) | SMILES | appearance after storage (visual) [1]
low | thermodynamically most stable one | No change | no change is detected | more stable than form A | more stable than form A | – | – | CCCCc1oc2ccc(NS(C)(=O)=O)cc2c1C(=O)c1ccc(OCCCN(CCCC)CCCC)cc1 [Form B, 2-n-butyl-3-[4-(3-di-n-butylaminopropoxy)benzoyl]-5-methylsulfonamido-benzofuran] | no change is detected
– | transforms to form C upon heating | – | – | – | – | additional endothermic peak | appearance of some peaks of form B | CCCCc1oc2ccc(NS(C)(=O)=O)cc2c1C(=O)c1ccc(OCCCN(CCCC)CCCC)cc1 [Form A, 2-n-butyl-3-[4-(3-di-n-butylaminopropoxy)benzoyl]-5-methylsulfonamido-benzofuran] | yellow coloration; also recorded: agglomeration of the powder
– | unstable at room temperature | – | – | – | – | – | – | CCCCc1oc2ccc(NS(C)(=O)=O)cc2c1C(=O)c1ccc(OCCCN(CCCC)CCCC)cc1 [Form C, 2-n-butyl-3-[4-(3-di-n-butylaminopropoxy)benzoyl]-5-methylsulfonamido-benzofuran] | –
